# Assays:
# [1] = system: Normal human vaginal epithelial cells (NHVE 5164); assay: Vaginal cell proliferation (CellTiter 96 Aqueous One Solution); type: cell-based; conditions: complete medium, 72 hours
# Method: Normal human vaginal epithelial cells from Clonetics (NHVE 5164) were subcultured into 96 well plates at 37° C., 5% CO2. Cells were cultured with basal PrEBM (Clonetics CC 3165) supplemented with cell growth medium bulletKit (Clonetics, cc-3166). Cells were treated with HLA having different molecular weights (MW), HLA1 (Sigma #H1751, intrinsic viscosity=100), HLA2 (MW, 150-500 k, Carbomer #8-01250) and HLA3 (a disaccharide, MW 405, Sigma #H9649). HLA was dissolved in either basal culture medium or basal medium supplemented with growth factors (complete medium) at concentration of 100, 10 or 1 μg/ml. Control group cells were treated with culture medium only. Each treatment group included 6 samples. The media for the different samples were changed 48 hours later and cell proliferation was examined at 72 hours by using CellTiter 96 Aqueous One Solution from Promega (#TB245). Twenty μl of the reagent was added to each well. The plates were returned to cell culture incubator for 3 hours. The absorbance in each well was measured at 490 nm with a microtiter reader.
# [2] = system: Primary vaginal epithelial cells; assay: Glycogen production, periodic acid Schiff (PAS) assay; type: cell-based, human; conditions: 0.1 mg/mL, 5 days treatment, p<0.05 vs control
# Method: Primary vaginal epithelial cells were cultured in 96-well plates. Five samples were tested for each group. Treatment was for 5 days with culture medium solutions (PrEBM, Clonetics CC-3165) without (the control group) and with 0.1 mg/mL hyaluronic acid (Sigma H-1751). The media were changed every other day. At the end the treatment, the media was removed, and the well was washed twice with HBSS.
# Glycogen tests were performed using a periodic acid Schiff (PAS) assay as described below. Before the test, cells were fixed with a 10 vol % Formalin/ethanol solution for 1 hour at room temperature, followed by continuous rinsing with deionized (DI) water for 1 minute. Harleco® PAS Aassay Kit (from EM Science 64945/43) was used for glycogen detection. The basic principle is that the hydroxy groups on the glycogen units were first oxidized into aldehyde groups by periodic acid, and the aldehyde groups reacted with Schiff's agent to produce a red colorant. The specific assay operations were all done at room temperature as follows: • 1. Periodic acid reagent was added to the well/chamber and allowed to stand for 10 minutes). • 2. Samples were continuously rinsed in water for one minute. • 3. Schiff's reagent was added and allowed to stand for 15 minutes. • 4. […] The numbers of glycogen-stained positive cells were manually counted under microscope.
# [3] = system: E. coli with P family pili, ATCC 53505; assay: E. coli adhesion test on A431 cells; type: cell-based
# Method: Cultured A431 cells were used as a model human epithelial cell line. A431 cells were obtained from American Cell Type Culture Collection, catalog # CRL-1555. A monolayer of A431 cells was grown on a 24-well tissue culture plate until confluent. E. coli with P family pili, ATCC 53505, were cultured in trypticase soy broth (TSB) overnight. Phosphate buffered saline (PBS, control) or hyaluronic acid (Sigma, catalog # H1876) solutions at a concentration of 1 mg/ml or 5 mg/ml in PBS were added to the A431 cell layers, using a volume of 1.2 ml/well. For comparison, a control plate was set up and treated identically as the test plate, except that the wells in the control plate were given PBS without hyaluronic acid. After incubation for 30 minutes at 37° C., 0.5 ml of solution was removed from the wells and 0.5 ml of the bacteria suspension was added. […] After 60 minutes, the supernatant in each well was removed and the wells were rinsed thoroughly with PBS to remove all non-bound bacteria. Trypticase soy broth was then added to wells, and the system was incubated at 37° C. with shaking at 100 rpm/min for 2 hours. Bacterial concentration was measured by the detection of optical density of bacterial suspension at 540 nm.
# (§1) All the data are expressed as mean ± SEM and were analyzed by one-way Analysis of Variance (ANOVA) followed by a Tukey-Kramer Multiple Comparisons Test. […]
# [4] = system: Candida albicans, ATCC 10231; assay: Candida albicans attachment to A431 cells; type: cell-based
# Method: A culture of Candida albicans, ATCC 10231, was started in peptone/glucose culture medium and incubated at 37° C. with shaking for three days before the experiment. A monolayer of A431 cells, ATCC CRL-1555, was grown on a 24-well tissue culture plate until confluent. Hyaluronic acid at concentration of 1 mg/ml or 5 mg/ml in PBS was added to the wells (1.2 ml/well), and the plates were incubated for 30 minutes at 35° C. A control plate of confluent A431 cells was also prepared that received 1.2 ml/well PBS and no hyaluronic acid. After the 30 min incubation, 0.5 ml of solution was removed from the wells and 0.5 ml of yeast suspension (1×10^6 cfu/ml) was added. After 2 hours of incubation, the supernatant was removed from the wells and the wells were rinsed thoroughly with PBS to remove all non-bound yeast. Then, 0.2 ml of 0.25% trypsin/EDTA was added to each well and the plates were incubated at 35° C. for 15 min. Trypsinization was stopped by adding 1 ml of 10% fetal bovine serum in culture medium. The trypsinized cell/yeast suspension was centrifuged and re-suspended in 1 ml of the medium. […] The number of colonies on each plate was counted and the number of yeast attached to the cells in each well was calculated.
# as §1
# E. coli, ATCC 53505 = assay: Effect on E. coli growth (optical density at 540 nm); type: cell-based; conditions: 1 mg/ml or 5 mg/ml, 1, 2 and 3 hours
# Method: To test whether hyaluronic acid could influence cellular growth, E. coli, ATCC 53505 cells were cultured overnight in trypticase soy broth. The culture was then diluted to an optical density of 0.1 and hyaluronic acid (1 mg/ml or 5 mg/ml) in PBS was incubated with the E. coli suspension. A control comprising a suspension E. coli treated with PBS was also prepared. The test and control cells were incubated at 37° C. with shaking and the optical density of the bacterial suspensions at 540 nm was measured at 1, 2 and 3 hours after addition of the hyaluronic acid or PBS. All the data are expressed as mean ± SEM and were analyzed by one-way Analysis of Variance (ANOVA) followed by a Tukey-Kramer Multiple Comparisons Test. Differences were considered significant at the level of p<0.05.
substance,measurement,setting,value
hyaluronic acid [HLA2],vaginal cell proliferation compared to control group,"[1]; any of the three concentrations tested (100, 10, 1 μg/ml)",no statistically significant effect
hyaluronic acid [HLA1],vaginal cell proliferation compared to control group,[1]; 100 μg/ml,significantly promoted vaginal cell proliferation
same,vaginal cell proliferation compared to control group,[1]; low concentrations 10 and 1 μg/ml,no significant effect on cell proliferation
hyaluronic acid,glycogen production (numbers of glycogen-stained positive cells),[2],increase in glycogen production was statistically significant
same,number of E. coli attached to A431 cells,[3]; 1 mg/ml in PBS,lesser effect on E. coli adhesion
same,number of E. coli attached to A431 cells,[3]; 5 mg/ml in PBS,significantly inhibited
same,number of Candida albicans adhering to A431 cells,[4]; 1 mg/ml in PBS,the effect was not so significant
same,number of Candida albicans adhering to A431 cells,[4]; 5 mg/ml in PBS,significantly inhibited
same,E. coli growth,"E. coli, ATCC 53505",neither of the hyaluronic acid solutions had any effect on bacterial growth
